Measured values reported in patent publication US10294202B2, “Pyrrolidinones as herbicides” (FMC Corporation, priority 2013, dated 2019).
Like-named read-outs stand apart in the source and are kept apart here.

Columns and labels:
[1] = system: chickweed; experiment: Test C postemergence herbicide test; type: in vivo, Stellaria media
From the text: At the same time, plants selected from these crop and weed species and also barley (winter barley, Hordeum vulgare), […]), chickweed (common chickweed, Stellaria media), deadnettle (henbit deadnettle, Lamium amplexicaule), and canarygrass (littleseed canarygrass, Phalaris minor) were planted in pots containing Redi-Earth® planting medium (Scotts Company, 14111 Scottslawn Road, Marysville, Ohio 43041) comprising spaghnum peat moss, vermiculite, wetting agent and starter nutrients and treated with postemergence applications of test chemicals formulated in the same manner. Plants ranged in height from 2 to 18 cm (1- to 4-leaf stage) for postemergence treatments. Treated plants and controls were maintained in a greenhouse for 13 to 15 days, after which time all species were compared to controls and visually evaluated. Plant response ratings, summarized in Table C, are based on a scale of 0 to 100 where 0 is no effect and 100 is complete control. A dash (-) response means no test result.

[2] = system: kochia; experiment: Test C pre-/postemergence herbicide test; type: in vivo, Kochia scoparia
Outline: (§1)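 Plants grown and held in a greenhouse for 13 to 15 days post-spray, then rated 0–100 by visual comparison with controls. Pre treatments targeted seeds in loam and sand; post treatments targeted 1- to 4-leaf plants in peat-based potting medium.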

[3] = system: ryegrass, Italian; experiment: Test C pre-/postemergence herbicide test; type: in vivo, Lolium multiflorum
Outline: as §1

[4] = system: morningglory; experiment: Test C pre-/postemergence herbicide test; type: in vivo, Ipomoea coccinea
Outline: as §1

[5] = system: johnsongrass; experiment: Test C pre-/postemergence herbicide test; type: in vivo, Sorghum halepense
Outline: as §1

[6] = system: crabgrass, large; experiment: Test A pre-/postemergence herbicide test; type: in vivo, Digitaria sanguinalis; conditions: for Crabgrass, Large plant response rating: Preemergence, visual rating on 0 to 100 scale (0 no effect, 100 complete control)
Outline: (§2)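 Approximately 10 days after treatment in the greenhouse, plants were compared with untreated controls and given a 0–100 visual injury rating. Applications: preemergence directed soil spray; postemergence on 2–10 cm plants at the one- to two-leaf stage.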

[7] = system: corn; experiment: Test A pre-/postemergence herbicide test; type: in vivo, Zea mays; conditions: for Corn plant response rating: Preemergence
Outline: as §2

[8] = system: kochia; experiment: Test A pre-/postemergence herbicide test; type: in vivo, Kochia scoparia; conditions: for Plant response rating, Kochia: 125 g ai/ha
Outline: as §2

[9] = system: barnyardgrass; experiment: Test C pre-/postemergence herbicide test; type: in vivo, Echinochloa crus-galli; conditions: Preemergence
Outline: as §1

[10] = 62 g ai/ha, scale 0 to 100 (0 no effect, 100 complete control)
[11] = 125 g ai/ha, scale 0 to 100 (0 no effect, 100 complete control)
[12] = 250 g ai/ha, scale 0 to 100 (0 no effect, 100 complete control)
[13] = Postemergence, 31 g ai/ha, scale 0 (no effect) to 100 (complete control)
[14] = Postemergence, 62 g ai/ha, scale 0 to 100 (0 no effect, 100 complete control)
[15] = Postemergence, 125 g ai/ha, scale 0 to 100 (0 no effect, 100 complete control)
[16] = Postemergence, 250 g ai/ha, scale 0 to 100 (0 no effect, 100 complete control)
[17] = Preemergence, 62 g ai/ha, scale 0 to 100
[18] = Preemergence, 125 g ai/ha, scale 0 to 100 (0 no effect, 100 complete control)
[19] = Postemergence, 125 g ai/ha, 0 to 100 scale, 0 no effect, 100 complete control
[20] = Postemergence, 500 g ai/ha, 0 to 100 scale (0 no effect, 100 complete control)
[21] = preemergence, 500 g ai/ha, 0 to 100 scale
[22] = 125 g ai/ha, visual rating on 0 to 100 scale (0 no effect, 100 complete control)
[23] = 31 g ai/ha, scale 0 (no effect) to 100 (complete control)
[24] = Preemergence, 62 g ai/ha, scale 0 to 100 (0 no effect, 100 complete control)
[25] = Preemergence, 125 g ai/ha, scale 0 to 100
[26] = Preemergence, 31 g ai/ha, scale 0 to 100, 0 is no effect and 100 is complete control

Row | SMILES | Plant response rating, Chickweed [1, 10] | Plant response rating, Chickweed [1, 11] | Plant response rating, Chickweed [1, 12] | Plant response rating, Kochia [2, 13] | Plant response rating, Kochia [2, 14] | Plant response rating, Kochia [2, 17] | Plant response rating, Kochia [2, 18] | Plant response rating, Ryegrass, Italian [3, 17] | Plant response rating, Ryegrass, Italian [3, 18] | Plant response rating, Morningglory [4, 18] | Plant response rating, Johnsongrass [5, 17] | Plant response rating, Johnsongrass [5, 18] | Plant response rating, Crabgrass, Large [6, 19] | Plant response rating, Crabgrass, Large [6, 20] | Crabgrass, Large plant response rating ([6]; 125 g ai/ha) | Plant response rating, Crabgrass, Large [6, 21] | Plant response rating, Corn [7, 19] | Plant response rating, Corn [7, 20] | Corn plant response rating [7, 22] | Plant response rating, Corn [7, 21] | other results
1 | O=C1NCC(c2ccc(Cl)c(F)c2)C1C(=O)Nc1cccc(F)c1F (stereo not drawn) [Compound 52] | 25 | 45 | 60 | 30 | 35 | 10 | 15 | 0 | 0 | 0 | 0 | 10 | 80 | 80 | 90 | 90 | 0 | 30 | 0 | 0 | Plant response rating, Kochia [2, 15]: 40; Plant response rating, Kochia [2, 16]: 50; Plant response rating, Ryegrass, Italian [3, 13]: 0; Plant response rating, Ryegrass, Italian [3, 14]: 0; Plant response rating, Ryegrass, Italian [3, 15]: 0; Plant response rating, Ryegrass, Italian [3, 16]: 0; Plant response rating, Morningglory [4, 13]: 5; Plant response rating, Morningglory [4, 14]: 10; Plant response rating, Morningglory [4, 15]: 10; Plant response rating, Morningglory [4, 16]: 30; Plant response rating, Morningglory [4, 17]: 0; Plant response rating, Johnsongrass [5, 13]: 0; Plant response rating, Johnsongrass [5, 14]: 0; Plant response rating, Johnsongrass [5, 15]: 0; Plant response rating, Johnsongrass [5, 16]: 0
2 | O=C1NCC(c2cc(F)c(F)cc2F)C1C(=O)Nc1cccc(F)c1F (stereo not drawn) [Compound 50] | 0 | 0 | 5 | 0 | 0 | – | – | – | – | – | – | – | 80 | 80 | 90 | 90 | 0 | 0 | 0 | 0 | Plant response rating, Chickweed [1, 23]: 0; Plant response rating, Kochia [2, 15]: 0; Plant response rating, Kochia [2, 16]: 0; Plant response rating, Ryegrass, Italian [3, 13]: 0; Plant response rating, Ryegrass, Italian [3, 14]: 0; Plant response rating, Ryegrass, Italian [3, 15]: 0; Plant response rating, Ryegrass, Italian [3, 16]: 0; Plant response rating, Morningglory [4, 13]: 0; Plant response rating, Morningglory [4, 14]: 0; Plant response rating, Morningglory [4, 15]: 10; Plant response rating, Morningglory [4, 16]: 10; Plant response rating, Johnsongrass [5, 13]: 0; Plant response rating, Johnsongrass [5, 14]: 0; Plant response rating, Johnsongrass [5, 15]: 0; Plant response rating, Johnsongrass [5, 16]: 10
3 | O=C1NCC(c2ccc(F)c(Cl)c2)C1C(=O)Nc1ccccc1F (stereo not drawn) [Compound 60] | 10 | 30 | – | 0 | 10 | 0 | 0 | 0 | 0 | 10 | 20 | 20 | 80 | 90 | 90 | 90 | 0 | 60 | 0 | 0 | Plant response rating, Chickweed [1, 23]: 0; Plant response rating, Kochia [2, 15]: 45; Plant response rating, Ryegrass, Italian [3, 13]: 0; Plant response rating, Ryegrass, Italian [3, 14]: 0; Plant response rating, Ryegrass, Italian [3, 15]: 0; Plant response rating, Morningglory [4, 13]: 5; Plant response rating, Morningglory [4, 14]: 10; Plant response rating, Morningglory [4, 15]: 10; Plant response rating, Morningglory [4, 17]: 10; Plant response rating, Johnsongrass [5, 13]: 5; Plant response rating, Johnsongrass [5, 14]: 5; Plant response rating, Johnsongrass [5, 15]: 5
4 | O=C1NCCC1C(=O)N(c1ccc(F)c(F)c1)c1ccccc1F (stereo not drawn) [Compound 5, N-(3,4-difluorophenyl)-N-(2-fluorophenyl)-2-oxo-3-pyrrolidinecarboxamide] | – | – | – | – | – | 0 | 0 | 0 | 0 | 0 | 0 | 0 | – | – | 80 | – | – | – | 0 | – | Plant response rating, Morningglory [4, 17]: 0; pest or weed control at 125 g/ha ([6]; Digitaria sanguinalis, post-emergence, 240 h, Postemergence, 125 g ai/ha, 0 to 100 scale, 0 no effect, 100 complete control, read-out: Plant response rating, Crabgrass, Large): 70%; pest or weed control at 500 g/ha ([6]; Digitaria sanguinalis, post-emergence, 240 h, Postemergence, 500 g ai/ha, 0 to 100 scale (0 no effect, 100 complete control), read-out: Plant response rating, Crabgrass, Large): 80%; pest or weed control at 500 g/ha ([6]; Digitaria sanguinalis, pre-emergence, 240 h, preemergence, 500 g ai/ha, 0 to 100 scale, read-out: Plant response rating, Crabgrass, Large): 90%; Corn plant response rating (crop injury, 0 = no effect, 100 = complete kill) at 125 g/ha ([7]; Zea mays, post-emergence, 240 h, Postemergence, 125 g ai/ha, 0 to 100 scale, 0 no effect, 100 complete control): 0%; Corn plant response rating (crop injury, 0 = no effect, 100 = complete kill) at 500 g/ha ([7]; Zea mays, post-emergence, 240 h, Postemergence, 500 g ai/ha, 0 to 100 scale (0 no effect, 100 complete control)): 0%; Corn plant response rating (crop injury, 0 = no effect, 100 = complete kill) at 500 g/ha ([7]; Zea mays, pre-emergence, 240 h, preemergence, 500 g ai/ha, 0 to 100 scale): 0%
5 | O=C1NCC(c2cccc(C(F)(F)F)c2)C1C(=O)Nc1ccc(F)c(F)c1F (stereo not drawn) [Compound 345] | – | – | 30 | – | – | – | – | – | – | – | – | – | – | – | – | – | – | 90 | – | – | Plant response rating, Kochia ([8]; Postemergence, visual rating on 0 to 100 scale (0 no effect, 100 complete control), approx. 10 days): 50; Plant response rating, Kochia ([8]; Preemergence, 0 to 100 scale where 0 is no effect and 100 is complete control): 10; Kochia plant response rating ([8]; Preemergence, 500 g ai/ha, visual rating on 0 to 100 scale (0 no effect, 100 complete control)): 80; Ryegrass, Italian plant response rating [3, 24]: 45; Plant response rating, Ryegrass, Italian [3, 25]: 10; Barnyardgrass plant response rating ([9]; 31 g ai/ha, scale 0 to 100, 0 is no effect and 100 is complete control): 80; Barnyardgrass plant response rating [9, 10]: 95; Plant response rating, Barnyardgrass [9, 11]: 95; Plant response rating (scale of 0 to 100; 0 is no effect, 100 is complete control), Barnyardgrass ([9]; 250 g ai/ha): 95; Morningglory plant response rating [4, 26]: 25; Morningglory plant response rating [4, 24]: 0; Plant response rating, Morningglory [4, 25]: 0; Plant response rating (scale of 0 to 100), Morningglory ([4]; Preemergence, 250 g ai/ha): 35; Johnsongrass plant response rating [5, 26]: 35; Johnsongrass plant response rating [5, 24]: 75; Plant response rating, Johnsongrass [5, 25]: 85; Plant response rating (scale of 0 to 100), Johnsongrass ([5]; Preemergence, 250 g ai/ha): 90; Plant response rating, Corn ([7]; Postemergence, 125 g ai/ha, visual rating on 0 to 100 scale (0 no effect, 100 complete control), approx. 10 days): 80
6 | O=C1NCC(c2cccc(OC(F)(F)F)c2)C1C(=O)Nc1ccccc1F (stereo not drawn) [Compound 69] | – | – | – | – | – | 0 | 0 | 0 | 0 | 25 | 0 | 0 | 70 | 90 | 90 | 90 | 20 | 90 | 0 | 0 | Kochia plant response rating [2, 26]: 0; Plant response rating (scale of 0 to 100), Kochia ([2]; Preemergence, 250 g ai/ha): 25; Ryegrass, Italian plant response rating [3, 26]: 0; Plant response rating (scale of 0 to 100), Ryegrass, Italian ([3]; Preemergence, 250 g ai/ha): 10; Morningglory plant response rating [4, 26]: 20; Plant response rating (scale of 0 to 100), Morningglory ([4]; Preemergence, 250 g ai/ha): 25; Johnsongrass plant response rating [5, 26]: 0; Plant response rating (scale of 0 to 100), Johnsongrass ([5]; Preemergence, 250 g ai/ha): 0
